In patent US5304474A, “Hydrophobic peptide esters and amides” (Board of Regents, The University of Texas System, priority 1991, dated 1994):
“Also recorded” adds a separate entry of the source.

Tests used:
spleen cells = experiment: Donor cell viability and subsets after treatment; type: cell-based, mice
From the text: Female, 8-16-wk-old, C57BL/6J (B6) and (C57BL/6J x DBA/2J)F1 mice (B6D2F1) were used as donors and recipients, respectively. For some experiments B6 donors were […] 70×10^6 cells/ml either in phosphate-buffered saline (PBS) or in Leu-Leu-OMe dissolved in PBS. Leu-Leu-OMe was synthesized from leucyl-leucine as previously described (10). […]
Immediately after treatment with Leu-Leu-OMe, there was less than a 5% loss of viable donor cells.

[1] = system: mononuclear phagocytes (MP); experiment: Loss of MP from PBM, anti-MP (63D3) staining; type: cell-based, human; settings: 15 minute exposure, 2 hours at 37° C. (FIG. 6)
Protocol: In the experiments depicted in FIG. 6, freshly isolated PBM (2.5×10^6 /ml PBS and 1g/l glucose) were incubated at room temperature with varying concentrations of Leu-Leu-OMe. After a 15 minute exposure to this compound, the cells were washed, incubated for 2 hours at 37° C. and then assessed for the percentage of remaining viable cells which were stained by anti-MP or anti-NK monoclonal antibodies. Preincubation with greater than 25-50 micromola Leu-Leu-OMe led to loss of NK cells.
Anti-MP monoclonal antibodies (63D3) and anti-NK monoclonal antibodies (leu 11b) were obtained from Becton Dickinson Monoclonal Center, lnc., Mountain View, Cal. The antibody staining and Fluorescence Activated Cell Sorter (FACS) procedure was that of Rosenberg et al. (1981) (J. Immunol. V 126, p 1473). Data are expressed as percent of antibody staining in control cells (mean±SEM, n=4).

[2] = following 3-h incubation at 37° C.

SMILES: COC(=O)[C@H](CC(C)C)NC(=O)[C@@H](N)CC(C)C [Leu-Leu-OMe, L-leucyl-L-leucine methyl ester]
- decrease in number of Lyt-2^+ spleen cells (spleen cells; [2]): more than 65%
- number of L3T4^+ cells (spleen cells; [2]): no alteration in the number of L3T4^+ cells
- loss of viable donor cells (spleen cells; immediately after treatment): < 5%
- loss of MP from PBM, in words [1]: did not deplete MP from PBM; also recorded: higher concentrations of Leu-Leu-OMe caused loss of MP
